Measurements published in patent US11008317B2, “Triazolopyridine inhibitors of myeloperoxidase and/or EPX” (priority 2016, dated 2021).
Structures can show the parent of a compound that is named as a salt.

Assays:
[1] = target: T1, myeloperoxidase (Homo sapiens, UniProt P05164); assay: MPO Peroxidation Assay (Amplex Red Assay); type: biochemical; details: potency range class
T1 sequence (P05164 49-745): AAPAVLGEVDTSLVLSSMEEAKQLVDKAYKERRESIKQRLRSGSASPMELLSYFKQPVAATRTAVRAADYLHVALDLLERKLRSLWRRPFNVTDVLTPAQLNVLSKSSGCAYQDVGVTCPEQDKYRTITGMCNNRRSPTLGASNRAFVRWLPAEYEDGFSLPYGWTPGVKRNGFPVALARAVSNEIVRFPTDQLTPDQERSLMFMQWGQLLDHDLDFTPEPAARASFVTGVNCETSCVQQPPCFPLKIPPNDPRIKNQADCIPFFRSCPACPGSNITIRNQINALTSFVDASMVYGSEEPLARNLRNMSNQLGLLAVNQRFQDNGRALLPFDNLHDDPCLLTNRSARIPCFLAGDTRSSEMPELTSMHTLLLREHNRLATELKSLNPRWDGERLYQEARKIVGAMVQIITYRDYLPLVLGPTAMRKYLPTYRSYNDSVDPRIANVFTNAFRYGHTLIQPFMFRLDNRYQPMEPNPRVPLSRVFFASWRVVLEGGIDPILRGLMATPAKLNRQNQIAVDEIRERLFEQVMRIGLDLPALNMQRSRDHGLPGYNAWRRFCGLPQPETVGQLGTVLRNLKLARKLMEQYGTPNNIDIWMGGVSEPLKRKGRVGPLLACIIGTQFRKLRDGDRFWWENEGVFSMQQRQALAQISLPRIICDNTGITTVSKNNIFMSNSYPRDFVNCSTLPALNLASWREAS

[2] = target: T1, myeloperoxidase; assay: MPO Chlorination Assay (APF Assay); type: biochemical; details: potency range class, read-out: APF Assay IC50 value
[3] = read-out: Amplex Red Assay IC50 value

SMILES	IC50 [1, 3] [µM]	IC50 [2] [nM]	IC50 ([1]; Amplex Red Assay IC50 value (μM)) [µM]
CC1(NCCC(c2ccccc2)c2cc(N)nc3[nH]nnc23)CCC(c2ccccc2)CC1 (mixture of isomers) [Example 143, 7-{3-[(1-methyl-4-phenylcyclohexyl)amino]-1-phenylpropyl}-3H-[1,2,3]triazolo[4,5-b]pyridin-5-amine]	0.101 to 0.999	101 to 999	–
CC(c1ccccc1)c1cc(N)nc2[nH]nnc12 (racemic) [Example 1, 7-(1-phenylethyl)-3H-[1,2,3]triazolo[4,5-b]pyridin-5-amine]	0.001 to 0.1	–	–
CC(c1cccc(F)c1)c1cc(N)nc2[nH]nnc12 (racemic) [Example 30, 7-(1-(3-fluorophenyl)ethyl)-3H-[1,2,3]triazolo[4,5-b]pyridin-5-amine]	0.001 to 0.1	101 to 999	–
Nc1cc(C(Cc2ccccc2F)c2ccccc2)c2nn[nH]c2n1 (single isomer, unassigned) [Example 9, 7-(2-(2-fluorophenyl)-1-phenylethyl)-3H-[1,2,3]triazolo[4,5-b]pyridin-5-amine]	0.101 to 0.999	101 to 999	–
Nc1cc(C(Cc2ccccc2)c2ccccc2F)c2nn[nH]c2n1 (single isomer, unassigned) [Example 10, 7-(1-(2-fluorophenyl)-2-phenylethyl)-3H-[1,2,3]triazolo[4,5-b]pyridin-5-amine]	0.001 to 0.1	1 to 100	–
CC(NCCC(c1ccccc1)c1cc(N)nc2[nH]nnc12)c1ccccc1 (single isomer, unassigned) [Example 13, 7-(1-phenyl-3-((1-phenylethyl)amino)propyl)-3H-[1,2,3]triazolo[4,5-b]pyridin-5-amine]	0.101 to 0.999	–	–
Nc1cc(C(CCNC2CC(c3ccccc3)C2)c2ccccc2)c2nn[nH]c2n1 (single isomer, unassigned) [Example 80, 7-{1-phenyl-3-[(3-phenylcyclobutyl)amino]propyl}-3H-[1,2,3]triazolo[4,5-b] pyridin-5-amine]	0.101 to 0.999	1 to 100	–
Nc1cc(C(CCOC2CCc3ccccc32)c2ccccc2)c2nn[nH]c2n1 (single isomer, unassigned) [Example 231, 7-(3-((2,3-dihydro-1H-inden-1-yl)oxy)-1-phenylpropyl)-3H-[1,2,3]triazolo[4,5-b]pyridin-5-amine]	0.101 to 0.999	101 to 999	–
Nc1cc(C(CCOC2CCc3ccccc32)c2ccccc2)c2nn[nH]c2n1 (single isomer, unassigned) [Example 232, 7-(3-((2,3-dihydro-1H-inden-1-yl)oxy)-1-phenylpropyl)-3H-[1,2,3]triazolo[4,5-b]pyridin-5-amine]	0.101 to 0.999	–	–
CN(CC[C@H](c1ccccc1)c1cc(N)nc2[nH]nnc12)[C@H]1CC[C@H](c2ccccc2)CC1 (stereo in doubt) [Example 178, 7-(3-(methyl(4-phenylcyclohexyl)amino)-1-phenylpropyl)-3H-[1,2,3]triazolo[4,5-b]pyridin-5-amine]	0.101 to 0.999	1 to 100	–
CCCC(c1ccccc1)c1cc(N)nc2[nH]nnc12 (stereo not drawn) [Example 3, 7-(1-phenylbutyl)-3H-[1,2,3]triazolo [4,5-b]pyridin-5-amine]	0.001 to 0.1	–	–
CCC(c1ccccc1)c1cc(N)nc2[nH]nnc12 (stereo not drawn) [Example 5, 7-(1-phenylpropyl)-3H-[1,2,3]triazolo [4,5-b]pyridin-5-amine]	0.101 to 0.999	–	–
Nc1cc(C(CCC2CCCCC2)c2ccccc2)c2nn[nH]c2n1 (stereo not drawn) [Example 6, 7-(3-cyclohexyl-1-phenylpropyl)-3H-[1,2,3]triazolo[4,5-b]pyridin-5-amine]	0.101 to 0.999	–	–
CC(C)(NCCC(c1ccccc1)c1cc(N)nc2[nH]nnc12)c1ccccc1 (stereo not drawn) [Example 14, 7-{1-phenyl-3-[(2-phenylpropan-2-yl)amino]propyl}-3H-[1,2,3]triazolo[4,5-b]pyridin-5-amine]	0.101 to 0.999	101 to 999	–
Nc1cc(C(CCNS(=O)(=O)c2ccccc2)c2ccccc2)c2nn[nH]c2n1 (stereo not drawn) [Example 15, N-(3-(5-amino-3H-[1,2,3]triazolo[4,5-b]pyridin-7-yl)-3-phenylpropyl)benzenesulfonamide, TFA]	0.001 to 0.1	101 to 999	–
Nc1cc(C(CCNC2CCCCC2)c2ccccc2)c2nn[nH]c2n1 (stereo not drawn) [Example 19, 7-[3-(cyclohexylamino)-1-phenylpropyl]-3H-[1,2,3]triazolo[4,5-b] pyridin-5-amine]	0.101 to 0.999	–	–
Nc1cc(C(Cc2ccccc2Cl)c2ccccc2)c2nn[nH]c2n1 (stereo not drawn) [Example 31, 7-[2-(2-chlorophenyl)-1-phenylethyl]-3H-[1,2,3]triazolo [4,5-b]pyridin-5-amine]	0.101 to 0.999	–	–
Nc1cc(C(Cc2ccc(Cl)cc2)c2ccccc2)c2nn[nH]c2n1 (stereo not drawn) [Example 33, 7-[2-(4-chlorophenyl)-1-phenylethyl]-3H-[1,2,3]triazolo [4,5-b]pyridin-5-amine]	0.101 to 0.999	–	–
COc1cccc(C(Cc2ccccc2)c2cc(N)nc3[nH]nnc23)c1 (stereo not drawn) [Example 34, 7-(1-(3-methoxyphenyl)-2-phenylethyl)-3H-[1,2,3]triazolo[4,5-b]pyridin-5-amine]	–	–	0.101 to 0.999
Nc1cc(C(Cc2ccccc2)c2cccc(Cl)c2)c2nn[nH]c2n1 (stereo not drawn) [Example 35, 7-[1-(3-chlorophenyl)-2-phenylethyl]-3H-[1,2,3]triazolo [4,5-b]pyridin-5-amine]	0.101 to 0.999	–	–
COC(=O)c1cccc(C(CCN[C@H]2CC[C@H](c3ccccc3)CC2)c2cc(N)nc3[nH]nnc23)c1 (stereo partly drawn) [Example 163, methyl 3-(1-{5-amino-3H-[1,2,3]triazolo [4,5-b]pyridin-7-yl}-3-{[(trans)-4-phenylcyclohexyl]amino}propyl) benzoate]	–	1 to 100	–
NC(=O)CN(CC[C@H](c1ccccc1)c1cc(N)nc2[nH]nnc12)[C@H]1CC[C@H](c2ccccc2)CC1 [Example 189, 2-{[(3R)-3-{5-amino-3H-[1,2,3]triazolo [4,5-b]pyridin-7-yl}-3-phenylpropyl] [(trans)-4-phenylcyclohexyl]amino}acetamide]	–	1 to 100	–
Nc1cc(C(Cc2ccc(CO)cc2)c2ccccc2)c2nn[nH]c2n1 (stereo not drawn) [Example 224, (4-(2-(5-amino-3H-[1,2,3]triazolo[4,5-b]pyridin-7-yl)-2-phenylethyl)phenyl)methanol]	0.001 to 0.1	–	–

Now from value to molecule, other results behind:

IC50 [1, 3] [µM]	IC50 [2] [nM]	SMILES	IC50 ([1]; Amplex Red Assay IC50 value (μM)) [µM]
0.101 to 0.999	101 to 999	CC(NCCC(c1ccccc1)c1cc(N)nc2[nH]nnc12)c1ccccc1 (single isomer, unassigned) [Example 12, 7-(1-phenyl-3-((1-phenylethyl)amino)propyl)-3H-[1,2,3]triazolo[4,5-b]pyridin-5-amine]	–
1 to 10	1 to 100	Nc1cc(C(CCNC2CC(c3ccccc3)C2)c2ccccc2)c2nn[nH]c2n1 (single isomer, unassigned) [Example 81, 7-{1-phenyl-3-[(3-phenylcyclobutyl)amino]propyl}-3H-[1,2,3]triazolo[4,5-b] pyridin-5-amine]	–
0.101 to 0.999	–	CC(C)CC(c1ccccc1)c1cc(N)nc2[nH]nnc12 (stereo not drawn) [Example 4, 7-(3-methyl-1-phenylbutyl)-3H-[1,2,3]triazolo[4,5-b]pyridin-5-amine]	–
0.101 to 0.999	1 to 100	Nc1cc(C(CCNCc2ccc3ccccc3c2)c2ccccc2)c2nn[nH]c2n1 (stereo not drawn) [Example 16, 7-(3-{[(naphthalen-2-yl)methyl]amino}-1-phenylpropyl)-3H-[1,2,3]triazolo[4,5-b] pyridin-5-amine]	–
0.101 to 0.999	–	Nc1cc(C(Cc2cccc(Cl)c2)c2ccccc2)c2nn[nH]c2n1 (stereo not drawn) [Example 32, 7-[2-(3-chlorophenyl)-1-phenylethyl]-3H-[1,2,3]triazolo [4,5-b]pyridin-5-amine]	–
0.101 to 0.999	–	Cc1cccc(C(Cc2ccccc2)c2cc(N)nc3[nH]nnc23)c1 (stereo not drawn) [Example 36, 7-[1-(3-methylphenyl)-2-phenylethyl]-3H-[1,2,3]triazolo [4,5-b]pyridin-5-amine]	–
0.001 to 0.1	–	Nc1cc(C(CCNC2CCC(c3ccc(Cl)c(Cl)c3)c3ccccc32)c2ccccc2)c2nn[nH]c2n1 (stereo not drawn) [Example 122, 7-(3-{[4-(3,4-dichlorophenyl)-1,2,3,4-tetrahydronaphthalen-1-yl]amino}-1-phenylpropyl)-3H-[1,2,3]triazolo[4,5-b]pyridin-5-amine]	–
–	1 to 100	CC1CC(NCCC(c2ccccc2)c2cc(N)nc3[nH]nnc23)CCN1c1ccccc1 (stereo not drawn) [Example 131, N-(3-{5-amino-3H-[1,2,3]triazolo[4,5-b]pyridin-7-yl}-3-phenylpropyl)-2-methyl-1-phenylpiperidin-4-amine]	–
0.101 to 0.999	–	Nc1cc(C(CCO)c2ccccc2)c2nn[nH]c2n1 (stereo not drawn) [Example 174, 3-{5-amino-3H-[1,2,3]triazolo [4,5-b]pyridin-7-yl}-3-phenylpropan-1-ol]	–
0.001 to 0.1	–	Nc1cc([C@H](CCNC23CCC(c4ccccc4)(CC2)C(O)C3)c2ccccc2)c2nn[nH]c2n1 (stereo partly drawn) [Example 181, 4-{[(3R)-3-{5-amino-3H-[1,2,3]triazolo [4,5-b]pyridin-7-yl}-3-phenylpropyl]amino}-1-phenylbicyclo[2.2.2] octan-2-ol]	–
